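Interpolation was linear, between the two tested concentrations surrounding the appropriate level; five concentrations were tested over 48 hours in 96-well plates. Here, GI50 denotes the concentration required for 50% inhibition of growth. TGI: total growth inhibition.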
Legend:
Experiment in all cases: growth of human tumour cells (NCI), 48 h
NCI-H460 lung = tested on: NCI-H460 lung
M14 melanoma = tested on: M14 melanoma
MOLT-4 leukemia = tested on: MOLT-4 leukemia
PC-3 prostate = tested on: PC-3 prostate
OVCAR-3 ovarian = tested on: OVCAR-3 ovarian
SF-539 CNS = tested on: SF-539 CNS
SF-268 CNS = tested on: SF-268 CNS
OVCAR-8 ovarian = tested on: OVCAR-8 ovarian
BT-549 breast = tested on: BT-549 breast
LOX IMVI melanoma = tested on: LOX IMVI melanoma

Structure (SMILES) | GI50 (NCI-H460 lung) [µM] | TGI (NCI-H460 lung) [µM] | GI50 (M14 melanoma) [µM] | TGI (M14 melanoma) [µM] | GI50 (MOLT-4 leukemia) [µM] | TGI (MOLT-4 leukemia) [µM] | GI50 (PC-3 prostate) [µM] | TGI (PC-3 prostate) [µM] | GI50 (OVCAR-3 ovarian) [µM] | TGI (OVCAR-3 ovarian) [µM] | GI50 (SF-539 CNS) [µM] | TGI (SF-539 CNS) [µM] | GI50 (SF-268 CNS) [µM] | TGI (SF-268 CNS) [µM] | GI50 (OVCAR-8 ovarian) [µM] | TGI (OVCAR-8 ovarian) [µM] | GI50 (BT-549 breast) [µM] | TGI (BT-549 breast) [µM] | GI50 (LOX IMVI melanoma) [µM] | TGI (LOX IMVI melanoma) [µM]
O=C(NNc1nc2cc(F)ccc2n2c(CN3CCOCC3)ccc12)c1ccccc1 | 0.0724 | 1.32 | 0.173 | 1.26 | 0.175 | 2.18 | 0.339 | 3.05 | 0.242 | 1.65 | 0.273 | 1.39 | 0.243 | 2.69 | 0.321 | 7.66 | 0.559 | 6.57 | 0.119 | 1.43
COc1ccc(/C=C2/CN(C(=O)c3ccccc3F)C/C(=C\c3ccc(OC)cc3)C2=O)cc1 | 8.81 | 30.8 | 2.73 | 7.51 | 3.79 | 49.5 | 2.57 | 8.87 | 2.3 | 4.95 | 3.65 | 14.6 | 4.28 | 18.9 | 3.4 | 85.1 | 2.05 | 4.32 | 1.66 | 3.24
CN(C(=O)c1ccc(F)cc1C(F)(F)F)C1CCN(c2nnc(-c3ccnn3C)c3ccccc23)CC1 | 53.9 | > 100 | 46.7 | > 100 | 23.2 | 68.8 | 33.3 | > 100 | 38.1 | > 100 | > 100 | > 100 | > 74.5 | > 100 | 30.5 | > 100 | 33.3 | > 100 | 61.5 | > 100
Cc1nc2sc(C(=O)Nc3cccc4ccccc34)c(N)c2cc1C(C)O (stereo unspecified) | 0.184 | 9.91 | 0.176 | > 50 | 0.227 | > 50 | 0.285 | > 50 | 0.155 |  | 0.155 | 0.968 | 0.367 | > 50 | 0.368 | > 50 | 0.264 | > 13.8 | 0.264 | > 50
O=C1OCC(c2ccc(O)c(O)c2)=C1c1cc(O)c(O)c(O)c1 | 35.3 | > 100 | 23.9 | 69.7 | 12.9 | 27.8 | 17.9 | 43.3 | 12.9 | 26.5 | 22.8 | 47.9 | 63.7 | > 100 | 75 | > 100 | 39 | > 100 | 19.1 | 36.8
O=C(Cn1ccnc1[N+](=O)[O-])N(CCO)CCO | > 250 | > 1250 |  | > 250 | > 1250 | > 1250 |  | > 250 | > 312 | > 828 | > 1250 | > 1250 | > 1250 | > 1250 | > 1250 | > 1250 |  | > 250 | > 250 | > 1250
